Experimental data published in ChEMBL document CHEMBL3217587, “The discovery of N-1 substituted 2-aminobenzimidazoles as zinc-dependent S. aureus biofilm inhibitors” (Medchemcomm, 2012).
The source made the active and inactive calls. The rule behind the calls is not given here.

What was measured:
Staphylococcus aureus [1] = test: Antimicrobial activity against methicillin-resistant Staphylococcus aureus ATCC 43300 assessed as inhibition of biofilm formation at 8 uM after 24 hrs by crystal violet staining-based microscopy in presence of > 50 uM Zn2+ ion; format: functional, organism-based
Staphylococcus aureus [2] = test: Antimicrobial activity against methicillin-resistant Staphylococcus aureus ATCC 700789 after 16 hrs by broth microdilution method; format: functional; details: ATCC 700789, 16 h
Staphylococcus aureus [3] = test: Antimicrobial activity against methicillin-resistant Staphylococcus aureus ATCC BAA-44 assessed as inhibition of biofilm formation after 24 hrs by crystal violet staining-based microscopy; format: functional, organism-based; details: ATCC BAA-44, 24 h
Staphylococcus aureus [4] = test: Toxicity in methicillin-resistant Staphylococcus aureus ATCC BAA-44 assessed as inhibition of planktonic cell growth at IC50 after 2 to 24 hrs by spectrophotometry; format: organism-based
Staphylococcus aureus [5] = test: Antimicrobial activity against methicillin-resistant Staphylococcus aureus ATCC BAA-1753 after 16 hrs by broth microdilution method; format: functional; details: ATCC BAA-1753, 16 h
Pseudomonas aeruginosa = test: Antimicrobial activity against Pseudomonas aeruginosa PA14 after 16 hrs by broth microdilution method; format: functional; details: PA14, 16 h
Staphylococcus aureus [6] = test: Antimicrobial activity against methicillin-resistant Staphylococcus aureus ATCC 43300 assessed as inhibition of biofilm formation at 8 uM after 24 hrs by crystal violet staining-based microscopy in presence of Mg2+ ion; format: functional, organism-based
Staphylococcus aureus [7] = test: Antimicrobial activity against methicillin-resistant Staphylococcus aureus ATCC 43300 assessed as inhibition of biofilm formation at 8 uM after 24 hrs by crystal violet staining-based microscopy in presence of Ca2+ ion; format: functional, organism-based
Staphylococcus aureus [8] = test: Antimicrobial activity against methicillin-resistant Staphylococcus aureus ATCC 43300 after 16 hrs by broth microdilution method; format: functional; details: ATCC 43300, 16 h
Staphylococcus aureus [9] = test: Antimicrobial activity against methicillin-resistant Staphylococcus aureus ATCC 43300 assessed as inhibition of biofilm formation at 8 uM after 24 hrs by crystal violet staining-based microscopy in presence of Mn2+ ion; format: functional, organism-based
Staphylococcus aureus [10] = test: Antimicrobial activity against methicillin-resistant Staphylococcus aureus ATCC 43300 assessed as inhibition of biofilm formation at 8 uM after 24 hrs by crystal violet staining-based microscopy in presence of Cu2+ ion; format: functional, organism-based
Staphylococcus aureus [11] = test: Antimicrobial activity against methicillin-resistant Staphylococcus aureus ATCC BAA-1556 after 16 hrs by broth microdilution method; format: functional; details: ATCC BAA-1556, 16 h
Staphylococcus aureus [12] = test: Antimicrobial activity against methicillin-resistant Staphylococcus aureus ATCC 33591 after 16 hrs by broth microdilution method; format: functional; details: ATCC 33591, 16 h
Acinetobacter baumannii = test: Antimicrobial activity against multidrug-resistant Acinetobacter baumannii ATCC BAA-1605 after 16 hrs by broth microdilution method; format: functional; details: ATCC BAA-1605, 16 h
Staphylococcus aureus [13] = test: Antibiofilm activity against methicillin-resistant Staphylococcus aureus ATCC 43300 assessed as biofilm dispersal at 20 uM after 24 hrs by crystal violet staining-based microscopy; format: functional, organism-based
Staphylococcus aureus [14] = test: Antimicrobial activity against methicillin-resistant Staphylococcus aureus ATCC BAA-811 after 16 hrs by broth microdilution method; format: functional; details: ATCC BAA-811, 16 h
Staphylococcus aureus [15] = test: Antimicrobial activity against methicillin-resistant Staphylococcus aureus ATCC BAA-44 after 16 hrs by broth microdilution method; format: functional; details: ATCC BAA-44, 16 h
Staphylococcus aureus [16] = test: Antimicrobial activity against methicillin-resistant Staphylococcus aureus ATCC 43300 assessed as inhibition of biofilm formation after 24 hrs by crystal violet staining-based microscopy; format: functional, organism-based; details: ATCC 43300, 24 h
Staphylococcus aureus [17] = test: Antimicrobial activity against methicillin-susceptible Staphylococcus aureus ATCC 29213 after 16 hrs by broth microdilution method; format: functional; details: ATCC 29213, 16 h
Staphylococcus aureus [18] = test: Antimicrobial activity against methicillin-resistant Staphylococcus aureus ATCC 43300 assessed as inhibition of biofilm formation at 8 uM after 24 hrs by crystal violet staining-based microscopy in presence of < 50 uM Zn2+ ion; format: functional
Staphylococcus aureus [19] = test: Toxicity in methicillin-resistant Staphylococcus aureus ATCC 43300 assessed as inhibition of planktonic cell growth at IC50 after 2 to 24 hrs by spectrophotometry; format: organism-based
Staphylococcus aureus [20] = test: Antimicrobial activity against methicillin-resistant Staphylococcus aureus ATCC 43300 assessed as inhibition of biofilm formation at 8 uM after 24 hrs by crystal violet staining-based microscopy in presence of Fe2+ ion; format: functional, organism-based
Staphylococcus aureus [21] = test: Antimicrobial activity against methicillin-resistant Staphylococcus aureus ATCC BAA-1685 after 16 hrs by broth microdilution method; format: functional; details: ATCC BAA-1685, 16 h
Staphylococcus aureus [22] = test: Antimicrobial activity against methicillin-resistant Staphylococcus aureus ATCC 43300 assessed as inhibition of biofilm formation at 8 uM after 24 hrs by crystal violet staining-based microscopy in presence of 200 uM Zn2+ ion; format: functional

For `CCCCCCn1c(N)nc2cc(NC(=O)c3ccc(CCCCC)cc3)ccc21.Cl`, the inhibition (Staphylococcus aureus [1]) was “inactive”, the MIC (Staphylococcus aureus [2]) was 32 µg/mL and the IC50 (Staphylococcus aureus [3]) was 7.3 µM. For the same molecule, the Activity (Staphylococcus aureus [4]) was “Non-toxic”, the MIC (Staphylococcus aureus [5]) was 16 µg/mL and the MIC (Pseudomonas aeruginosa) was > 64 µg/mL. The inhibition (Staphylococcus aureus [6]) was “Active”, the inhibition (Staphylococcus aureus [7]) was “Active” and the MIC (Staphylococcus aureus [8]) was 16 µg/mL. The inhibition (Staphylococcus aureus [9]) was “Active”, the inhibition (Staphylococcus aureus [10]) was “Active” and the MIC (Staphylococcus aureus [11]) was 16 µg/mL. The MIC (Staphylococcus aureus [12]) was 16 µg/mL, the MIC (Acinetobacter baumannii) was > 64 µg/mL and the Activity (Staphylococcus aureus [13]) was “inactive”. The MIC (Staphylococcus aureus [14]) was 16 µg/mL, the MIC (Staphylococcus aureus [15]) was 16 µg/mL and the IC50 (Staphylococcus aureus [16]) was 4.7 µM. The MIC (Staphylococcus aureus [17]) was 16 µg/mL, the inhibition (Staphylococcus aureus [18]) was “inactive” and the Activity (Staphylococcus aureus [19]) was “Non-toxic”. For the same molecule, the inhibition (Staphylococcus aureus [20]) was “Active” and the MIC (Staphylococcus aureus [21]) was 16 µg/mL.

`CCCCCc1ccc(C(=O)Nc2ccc3c(c2)nc(N)n3CCc2ccccc2)cc1.Cl` was tested, and the inhibition (Staphylococcus aureus [1]) was “inactive”, the MIC (Staphylococcus aureus [2]) was 16 µg/mL and the IC50 (Staphylococcus aureus [3]) was 6 µM. The Activity (Staphylococcus aureus [4]) was “Non-toxic”, the MIC (Staphylococcus aureus [5]) was 8 µg/mL and the MIC (Pseudomonas aeruginosa) was > 64 µg/mL. For the same molecule, the inhibition (Staphylococcus aureus [6]) was “Active”, the inhibition (Staphylococcus aureus [7]) was “Active” and the MIC (Staphylococcus aureus [8]) was 8 µg/mL. For the same molecule, the inhibition (Staphylococcus aureus [9]) was “Active”, the inhibition (Staphylococcus aureus [10]) was “Active” and the MIC (Staphylococcus aureus [11]) was 8 µg/mL. The MIC (Staphylococcus aureus [12]) was 8 µg/mL, the MIC (Acinetobacter baumannii) was > 64 µg/mL and the Activity (Staphylococcus aureus [13]) was “inactive”. For the same molecule, the MIC (Staphylococcus aureus [14]) was 8 µg/mL, the MIC (Staphylococcus aureus [15]) was 16 µg/mL and the IC50 (Staphylococcus aureus [16]) was 4.7 µM. For the same molecule, the MIC (Staphylococcus aureus [17]) was 8 µg/mL, the “inhibition (INH)” value (Staphylococcus aureus [18]) was 70% and the Activity (Staphylococcus aureus [19]) was “Non-toxic”. The “inhibition (INH)” value (Staphylococcus aureus [22]) was 10%, the inhibition (Staphylococcus aureus [20]) was “Active” and the MIC (Staphylococcus aureus [21]) was 8 µg/mL.

With `CCCCCc1ccc(C(=O)Nc2ccc3c(c2)nc(N)n3Cc2ccc(OC)cc2)cc1.Cl` the MIC (Staphylococcus aureus [2]) was 16 µg/mL, the IC50 (Staphylococcus aureus [3]) was 11.5 µM and the Activity (Staphylococcus aureus [4]) was “Toxic”. The MIC (Staphylococcus aureus [5]) was > 64 µg/mL, the MIC (Pseudomonas aeruginosa) was > 64 µg/mL and the MIC (Staphylococcus aureus [8]) was 16 µg/mL. The MIC (Staphylococcus aureus [11]) was 16 µg/mL, the MIC (Staphylococcus aureus [12]) was 16 µg/mL and the MIC (Acinetobacter baumannii) was > 64 µg/mL. For the same molecule, the Activity (Staphylococcus aureus [13]) was “inactive”, the MIC (Staphylococcus aureus [14]) was 16 µg/mL and the MIC (Staphylococcus aureus [15]) was 16 µg/mL. For the same molecule, the IC50 (Staphylococcus aureus [16]) was 5.7 µM, the MIC (Staphylococcus aureus [17]) was > 64 µg/mL and the Activity (Staphylococcus aureus [19]) was “Non-toxic”. For the same molecule, the MIC (Staphylococcus aureus [21]) was 16 µg/mL.

For `CCCCCc1ccc(C(=O)Nc2ccc3c(c2)nc(N)n3C2CCCC2)cc1.Cl`, the MIC (Staphylococcus aureus [2]) was 16 µg/mL, the IC50 (Staphylococcus aureus [3]) was 4.3 µM and the Activity (Staphylococcus aureus [4]) was “Non-toxic”. For the same molecule, the MIC (Staphylococcus aureus [5]) was 8 µg/mL, the MIC (Pseudomonas aeruginosa) was > 64 µg/mL and the MIC (Staphylococcus aureus [8]) was 8 µg/mL. The MIC (Staphylococcus aureus [11]) was 8 µg/mL, the MIC (Staphylococcus aureus [12]) was 8 µg/mL and the MIC (Acinetobacter baumannii) was > 64 µg/mL. For the same molecule, the Activity (Staphylococcus aureus [13]) was “inactive”, the MIC (Staphylococcus aureus [14]) was 16 µg/mL and the MIC (Staphylococcus aureus [15]) was 16 µg/mL. For the same molecule, the IC50 (Staphylococcus aureus [16]) was 3.6 µM, the MIC (Staphylococcus aureus [17]) was 16 µg/mL and the Activity (Staphylococcus aureus [19]) was “Non-toxic”. It also gave an MIC (Staphylococcus aureus [21]) of 8 µg/mL.

`CCCCCc1ccc(C(=O)Nc2ccc3c(c2)nc(N)n3Cc2ccccc2)cc1.Cl` was tested, and the MIC (Staphylococcus aureus [2]) was > 64 µg/mL, the IC50 (Staphylococcus aureus [3]) was 6.8 µM and the Activity (Staphylococcus aureus [4]) was “Non-toxic”. For the same molecule, the MIC (Staphylococcus aureus [5]) was > 64 µg/mL, the MIC (Pseudomonas aeruginosa) was > 64 µg/mL and the MIC (Staphylococcus aureus [8]) was > 64 µg/mL. The MIC (Staphylococcus aureus [11]) was > 64 µg/mL, the MIC (Staphylococcus aureus [12]) was > 64 µg/mL and the MIC (Acinetobacter baumannii) was > 64 µg/mL. The Activity (Staphylococcus aureus [13]) was “inactive”, the MIC (Staphylococcus aureus [14]) was > 64 µg/mL and the MIC (Staphylococcus aureus [15]) was > 64 µg/mL. For the same molecule, the IC50 (Staphylococcus aureus [16]) was 5.2 µM, the MIC (Staphylococcus aureus [17]) was > 64 µg/mL and the Activity (Staphylococcus aureus [19]) was “Non-toxic”. For the same molecule, the MIC (Staphylococcus aureus [21]) was > 64 µg/mL.

With `CCCCCc1ccc(C(=O)Nc2ccc3c(c2)nc(N)n3CCc2cccc(OC)c2)cc1.Cl` the MIC (Staphylococcus aureus [2]) was 16 µg/mL, the IC50 (Staphylococcus aureus [3]) was 9.3 µM and the Activity (Staphylococcus aureus [4]) was “Non-toxic”. The MIC (Staphylococcus aureus [5]) was 16 µg/mL, the MIC (Pseudomonas aeruginosa) was > 64 µg/mL and the MIC (Staphylococcus aureus [8]) was 16 µg/mL. The MIC (Staphylococcus aureus [11]) was 16 µg/mL, the MIC (Staphylococcus aureus [12]) was 16 µg/mL and the MIC (Acinetobacter baumannii) was > 64 µg/mL. The Activity (Staphylococcus aureus [13]) was “inactive”, the MIC (Staphylococcus aureus [14]) was 16 µg/mL and the MIC (Staphylococcus aureus [15]) was 32 µg/mL. For the same molecule, the IC50 (Staphylococcus aureus [16]) was 6.1 µM, the MIC (Staphylococcus aureus [17]) was 16 µg/mL and the Activity (Staphylococcus aureus [19]) was “Toxic”. It also gave an MIC (Staphylococcus aureus [21]) of 16 µg/mL.

With `CCCCCc1ccc(C(=O)Nc2ccc3c(c2)nc(N)n3CCc2ccc3ccccc3c2)cc1.Cl` the MIC (Staphylococcus aureus [2]) was 32 µg/mL, the IC50 (Staphylococcus aureus [3]) was 14.3 µM and the Activity (Staphylococcus aureus [4]) was “Toxic”. For the same molecule, the MIC (Staphylococcus aureus [5]) was 64 µg/mL, the MIC (Pseudomonas aeruginosa) was > 64 µg/mL and the MIC (Staphylococcus aureus [8]) was 32 µg/mL. The MIC (Staphylococcus aureus [11]) was 32 µg/mL, the MIC (Staphylococcus aureus [12]) was 32 µg/mL and the MIC (Acinetobacter baumannii) was > 64 µg/mL. The Activity (Staphylococcus aureus [13]) was “inactive”, the MIC (Staphylococcus aureus [14]) was 32 µg/mL and the MIC (Staphylococcus aureus [15]) was 32 µg/mL. For the same molecule, the IC50 (Staphylococcus aureus [16]) was 5.7 µM, the MIC (Staphylococcus aureus [17]) was 64 µg/mL and the Activity (Staphylococcus aureus [19]) was “Toxic”. For the same molecule, the MIC (Staphylococcus aureus [21]) was 32 µg/mL.

`CCCCCc1ccc(C(=O)Nc2ccc3c(c2)nc(N)n3CCc2ccccc2OC)cc1.Cl` was tested, and the MIC (Staphylococcus aureus [2]) was 16 µg/mL, the IC50 (Staphylococcus aureus [3]) was 7.3 µM and the Activity (Staphylococcus aureus [4]) was “Toxic”. For the same molecule, the MIC (Staphylococcus aureus [5]) was 16 µg/mL, the MIC (Pseudomonas aeruginosa) was > 64 µg/mL and the MIC (Staphylococcus aureus [8]) was 16 µg/mL. The MIC (Staphylococcus aureus [11]) was 16 µg/mL, the MIC (Staphylococcus aureus [12]) was 16 µg/mL and the MIC (Acinetobacter baumannii) was > 64 µg/mL. The Activity (Staphylococcus aureus [13]) was “inactive”, the MIC (Staphylococcus aureus [14]) was 8 µg/mL and the MIC (Staphylococcus aureus [15]) was 16 µg/mL. For the same molecule, the IC50 (Staphylococcus aureus [16]) was 5.7 µM, the MIC (Staphylococcus aureus [17]) was 16 µg/mL and the Activity (Staphylococcus aureus [19]) was “Non-toxic”. For the same molecule, the MIC (Staphylococcus aureus [21]) was 16 µg/mL.
